Measurements: ChEMBL document CHEMBL5149970 (J Med Chem, 2021)
Activity calls are given as the source filed them. The calls are words filed in the database; no cut-off is given here.

What was measured:
[1] = tested on: EU-1; assay: Inhibition of MDM2/XIAP IRES mRNA interaction in human EU-1 cells assessed as downregulation of XIAP protein expression incubated for 24 hrs by western blot analysis; type: cell-based; conditions: dose 0.25-2 µM, DDE = dose-dependent effect
[2] = Volume of distribution in Sprague-Dawley rat at 10 mg/kg, iv measured for 24 hrs by LC-MS/MS analysis; type: ADME, organism-based; conditions: in vivo
[3] = Antiproliferative activity against human NB-1643 cells assessed as reduction in cell survival incubated for 48 hrs by WST assay; type: functional, cell-based; conditions: NB-1643, 48 h
[4] = Antiproliferative activity against human EU-3 cells assessed as reduction in cell survival incubated for 48 hrs by WST assay; type: functional, cell-based; conditions: EU-3, 48 h
[5] = Oral bioavailability in Sprague-Dawley rat at 25 mg/kg measured for 24 hrs by LC-MS/MS analysis; type: ADME, organism-based; conditions: in vivo
[6] = tested on: EU-1; assay: Inhibition of MDM2/XIAP IRES mRNA interaction in human EU-1 cells assessed as increase in p53 protein expression measured after 24 hrs by western blot analysis; type: cell-based; conditions: dose 0.25-2 µM, DDE = dose-dependent effect
[7] = AUC in Sprague-Dawley rat at 25 mg/kg, po measured for 24 hrs by LC-MS/MS analysis; type: ADME, organism-based; parameters: time 24 hrs, dose 25 mg/kg, route po; conditions: in vivo
[8] = tested on: EU-1; assay: Inhibition of MDM2/XIAP IRES mRNA interaction in human EU-1 cells assessed as induction of MDM2 degradation by measuring fold change in MDM2 protein expression at 1 uM measured after 30 mins by CHX chase assay (reference value: 0.92); type: cell-based
[9] = tested on: EU-1; assay: Inhibition of MDM2/XIAP IRES mRNA interaction in human EU-1 cells assessed as inhibition of XIAP mRNA translation by measuring reduction in state of polyribosome association of XIAP mRNA in cytoplasmic lysate at 1 uM measured after 4 hrs by linear sucrose gradient fractionation based qRT-PCR analysis; type: subcellular; conditions: Cytoplasm
[10] = tested on: EU-1; assay: Inhibition of MDM2/XIAP IRES mRNA interaction in human EU-1 cells assessed as inhibition of XIAP mRNA translation by measuring increase in cytoplasmic fraction containing translation-inactive complexes, mono ribosomes at 1 uM measured after 4 hrs by linear sucrose gradient fractionation based qRT-PCR analysis; type: subcellular; conditions: Cytoplasm
[11] = tested on: EU-1; assay: Inhibition of MDM2/XIAP IRES mRNA interaction in human EU-1 cells assessed as increase in caspase-9 cleavage at 1 uM measured after 8 hrs by western blot analysis; type: cell-based
[12] = Elimination half life in Sprague-Dawley rat at 10 mg/kg, iv measured for 24 hrs by LC-MS/MS analysis; type: ADME, organism-based; conditions: in vivo
[13] = Cmax in Sprague-Dawley rat at 10 mg/kg, iv measured for 24 hrs by LC-MS/MS analysis; type: ADME, organism-based; parameters: dose 10 mg/kg, time 24 hrs, route iv; conditions: in vivo
[14] = tested on: EU-1; assay: Inhibition of MDM2/XIAP IRES mRNA interaction in human EU-1 cells assessed as increase in PUMA protein expression at 1 uM measured after 8 hrs by western blot analysis; type: cell-based
[15] = tested on: EU-1; assay: Inhibition of MDM2/XIAP IRES mRNA interaction in human EU-1 cells assessed as induction of MDM2 degradation by measuring downregulation of MDM2 protein expression at 1 uM measured after 2 to 24 hrs by western blot analysis; type: cell-based; conditions: time 2-24 hrs
[16] = Antiproliferative activity against human EU-1 cells assessed as inhibition of cell growth incubated for 48 hrs by WST assay; type: functional, cell-based; conditions: EU-1, 48 h
[17] = tested on: SH-EP1; assay: Inhibition of colony formation in human SH-EP1 cells assessed as reduction in colony number and size at 0.25 to 4 uM incubated for 2 weeks by crystal violet staining based analysis; type: functional, cell-based; conditions: dose 0.25-4 µM
[18] = tested on: NB-1643; assay: Inhibition of colony formation in human NB-1643 cells assessed as reduction in colony number and size at 0.25 to 4 uM incubated for 2 weeks by crystal violet staining based analysis; type: functional, cell-based; conditions: dose 0.25-4 µM
[19] = tested on: EU-1; assay: Inhibition of MDM2/XIAP IRES mRNA interaction in human EU-1 cells assessed as induction of MDM2 degradation by measuring fold change in MDM2 protein expression at 1 uM measured after 120 mins by CHX chase assay (reference value: 0.69); type: cell-based
[20] = tested on: EU-1; assay: Inhibition of MDM2/XIAP IRES mRNA interaction in human EU-1 cells assessed as fold change in p53 protein expression at 1 uM measured after 60 mins by CHX chase assay (reference value: 0.19); type: cell-based
[21] = tested on: EU-1; assay: Inhibition of MDM2/XIAP IRES mRNA interaction in human EU-1 cells assessed as induction of MDM2 self-ubiquitination at 1 uM measured for 90 mins by immunoprecipitation-western blot analysis; type: cell-based
[22] = tested on: LA1-55n; assay: Inhibition of colony formation in human LA1-55n cells assessed as reduction in colony number and size at 0.25 to 4 uM incubated for 2 weeks by crystal violet staining based analysis; type: functional, cell-based; conditions: dose 0.25-4 µM
[23] = tested on: EU-1; assay: Inhibition of MDM2/XIAP IRES mRNA interaction in human EU-1 cells assessed as fold change in p53 protein expression at 1 uM measured after 90 mins by CHX chase assay (reference value: 0.13); type: cell-based
[24] = tested on: EU-1; assay: Inhibition of MDM2/XIAP IRES mRNA interaction in human EU-1 cells assessed as induction of MDM2 degradation by measuring downregulation of MDM2 protein expression at 1 uM measured after 8 hrs by western blot analysis; type: cell-based
[25] = tested on: EU-1; assay: Inhibition of MDM2/XIAP IRES mRNA interaction in human EU-1 cells assessed as downregulation of XIAP protein expression at 1 uM measured after 2 to 24 hrs by western blot analysis; type: cell-based; conditions: time 2-24 hrs
[26] = tested on: EU-1; assay: Inhibition of MDM2/XIAP IRES mRNA interaction in human EU-1 cells assessed as induction of MDM2 degradation by measuring downregulation of MDM2 protein expression incubated for 24 hrs by western blot analysis; type: cell-based; conditions: dose 0.25-2 µM, DDE = dose-dependent effect
[27] = tested on: EU-1; assay: Inhibition of MDM2/XIAP IRES mRNA interaction in human EU-1 cells assessed as increase in PARP cleavage at 1 uM measured after 8 hrs by western blot analysis; type: cell-based
[28] = tested on: EU-1; conditions: Homo sapiens, dose 1.0 µM, time 4.0 hrs
[29] = tested on: EU-1; assay: Inhibition of MDM2/XIAP IRES mRNA interaction in human EU-1 cells assessed as increase in p53 protein expression at 1 uM measured after 8 hrs by western blot analysis; type: cell-based
[30] = Clearance in Sprague-Dawley rat at 10 mg/kg, iv measured for 24 hrs by LC-MS/MS analysis; type: ADME, organism-based; conditions: in vivo
[31] = tested on: EU-1; assay: Inhibition of MDM2/XIAP IRES mRNA interaction in human EU-1 cells assessed as induction of MDM2 degradation by measuring fold change in MDM2 protein expression at 1 uM measured after 60 mins by CHX chase assay (reference value: 0.85); type: cell-based
[32] = tested on: EU-1; assay: Inhibition of MDM2/XIAP IRES mRNA interaction in human EU-1 cells assessed as induction of MDM2 degradation by measuring fold change in MDM2 protein expression at 1 uM measured after 90 mins by CHX chase assay (reference value: 0.76); type: cell-based

In the case of `Cc1ccc(NS(=O)(=O)c2ccc3c(c2)C2OCCC2C(c2ccc(C(=O)C(C)C)cc2)N3)cc1C` (configuration not stated), the inhibition [1] is reported as “Dde”, the Vd [2] is reported as 2.88 L/kg and the IC50 [3] is reported as 500 nM. The IC50 [4] was 300 nM, the F [5] was 5.9% and the inhibition [6] was “Dde”. For the same compound, the AUC [7] was 710 ng·h/mL, the fold change (FC) [8] was 0.78 and the inhibition [9] was “Active”. The inhibition [10] was “Active”, the inhibition [11] was “Active” and the “beta t1/2” value [12] was 0.94 h. The Cmax [13] was 8200 ng/mL, the inhibition [14] was “Active” and the inhibition [15] was “Active”. The IC50 [16] was 300 nM, the inhibition [17] was “Active” and the inhibition [18] was “Active”. The fold change (FC) [19] was 0.13, the fold change (FC) [20] was 1.09 and the inhibition [21] was “Active”. For the same compound, the inhibition [22] was “Active”, the fold change (FC) [23] was 1.15 and the inhibition [24] was “Active”. For the same compound, the inhibition [25] was “Active”, the inhibition [26] was “Dde” and the inhibition [27] was “Active”. The T1/2 [28] was over 2 h, the inhibition [29] was “Active” and the CL [30] was 35.3 mL/min/kg. The fold change (FC) [31] was 0.47 and the fold change (FC) [32] was 0.25.
